Data from PubChem BioAssay AID1963439 (Molecular Pharmacology Branch, DTP, NCI, 2024).

Tested on: NCI-H196 complex spheroids with HUVEC/MSC, growth % T/C
Assay: Anticancer human tumor NCI-H196 cell line growth inhibition [Asc];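 note: spheroids exposed to compound for 7 days before measurement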;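 for viability, T/C: 100% = DMSO vehicle control wells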
Settings: for IC50: curve of first compound; for viability, T/C: stronger effect = lower value
Method: Multicellular complex tumor spheroid response to apoptosis pathway targeting inhibitors Alrizomadlin, Pelcitoclax, and Dasminapant in combination with a variety of drugs and investigational agents in selected tumor cell lines
The MDM2 inhibitor alrizomadlin, the Bcl-2/Bcl-xL inhibitor pelcitoclax, and the IAPs inhibitor dasminapant were evaluated both individually and in combination with standard of care and investigational anticancer small molecules within a complex spheroid model of solid tumors. . Complex spheroids include a stromal component modeled by human endothelial cells (HUVEC) and fibroblasts modeled by human mesenchymal stem cells (MSCs). The concentration ranges selected for each drug and investigational agent were based upon clinically achievable concentrations if the clinical Cmax of the agent was known.
Compounds. The drugs and investigational agents: alrizomadlin (APG-115; NSC831270), pelcitoclax (APG-1252; NSC835773), dasminapant (APG-1387;NSC834197), TAK-243 (NSC785004), copanlisib (NSC809693), olaparib (NSC753686), talazoparib (NSC767125), cobimetinib (NSC 768068), eltanexor (KPT-8602, NSC 794443), abemaciclib (NSC 768073), sotorasib (NSC818433), adagrasib (NSC 831453), MRTX-1133 (NSC 836407), Iadademestat (ORY1001, NSC 806812), and RMC-4630 (NSC839698), were obtained from the NCI Developmental Therapeutics Program Chemical Repository. The FDA-approved anticancer drug set is available from the Developmental Therapeutics Program at https://dtp.cancer.gov/organization/dscb/obtaining/available plates.htm. […] The stock solutions were prepared in dimethyl sulfoxide (DMSO, Sigma-Aldrich, St. Louis, MO, cat. D2650) at 800-fold the tested concentration and stored at -70 degrees C prior to their use. All drugs and investigational agents were tested over a range starting from a high concentration at or near the clinical Cmax and decreasing in half-log increments. If the clinical Cmax for an agent had not been determined, the highest concentration tested was 10 microM.
The patient-derived cancer (PDC) cell lines include five colon adenocarcinomas: 186277-243-T-J2-PDC, 616215-338-R-J1-PDC, 439559-082-T-J2-PDC, 463943-066-T-J2-PDC, and 519858-162-T-J1-PDC; three pancreatic carcinomas: 323965-272-R-J2-PDC, 521955-158-R6-J3-PDC, and 521955-158-R2-J5-PDC; two uterine sarcomas: 327498-152-R-J2-PDC and 993429-296-R-J1-PDC; two rhabdomyosarcomas: 755483-174-R-J1-PDC and 772245-204-R-J1-PDC; two soft tissue sarcomas: 126254-015-R-J1-PDC and 494315-158-R-J1-PDC; two malignant fibrous histiocytomas: 317291-083-R-J1-PDC and 596521-263-R-J1-PDC; two breast carcinomas: 171881-019-R-J1-PDC and 885512-296-R-J2-PDC; and one ovarian carcinoma: 6556581-035-R-J-PDC were obtained from the NCI PDMR, (https://pdmr.cancer.gov). The established cell lines HSSY-2 synovial sarcoma (RRID:CVCL 8719), SYO-1 synovial sarcoma (RRID:CVCL_7146), MPNST malignant peripheral neural sheath tumor were obtained from the Sloan Kettering Institute. The following established cell lines were purchased from the American Type Culture Collection (ATCC, Manassas, VA), Sor the received from the NCI repository:, PANC-1 pancreatic carcinoma (CRL-1469, RRID:CVCL_0480), OVCAR-5 ovarian carcinoma (RRID:CVCL_1628), OVCAR-8 ovarian carcinoma (RRID:CVCL_1629), , MCF-7 breast carcinoma (CRL-12584, RRID:CVCL_0031), MDA-MB-231 breast carcinoma (CRL-12532, RRID:CVCL_0062), NCI-H1876 small cell lung carcinoma (CRL-5902, RRID:CVCL_1503), NCI-H510A small cell lung carcinoma (HTB-184, RRID:CVCL_1565), NCI-H1417 (CRL-5869, RRID:CVCL_1469), and NCI-H196 small cell lung carcinoma (CRL-5823, RRID:CVCL_1509). Dr. Peter Houghton (Greehey Children's Cancer Research Institute, University of Texas Health Science Center, San Antonio, TX) provided Rh-18 rhabdomyosarcoma (RRID:CVCL_1659). Pooled donor human umbilical vein endothelial cells (HUVEC, Lonza, cat. CC-2519) and human mesenchymal stem cells (hMSC, Lonza, cat. PT-2501) were purchased from Lonza (Walkersville, MD).
Cell Culture. […]

SMILES: CCN1CCN(Cc2ccc(Nc3ncc(F)c(-c4cc(F)c5nc(C)n(C(C)C)c5c4)n3)nc2)CC1 + CCN1C(C(=O)NC23CCC(C(=O)O)(CC2)CC3)C(c2cccc(Cl)c2F)C2(C(=O)Nc3cc(Cl)ccc32)C12CCCCC2
- IC50 (second compound 0.03 µM): > 1000 nM
- IC50 (second compound 0.0949 µM): > 1000 nM
- IC50 (second compound 0.3 µM): > 1000 nM
- IC50 (second compound 0.949 µM): > 1000 nM
- IC50 (second compound 3 µM): > 1000 nM
- viability, T/C (second compound 0.03 µM, first compound 0.00316 µM): 99.9%
- viability, T/C (second compound 0.03 µM, first compound 0.01 µM): 99.8%
- viability, T/C (second compound 0.03 µM, first compound 0.0316 µM): 96.1%
- viability, T/C (second compound 0.03 µM, first compound 0.1 µM): 99.8%
- viability, T/C (second compound 0.03 µM, first compound 0.316 µM): 116%
- viability, T/C (second compound 0.03 µM, first compound 1 µM): 124%
- viability, T/C (second compound 0.0949 µM, first compound 0.00316 µM): 113%
- viability, T/C (second compound 0.0949 µM, first compound 0.01 µM): 112%
- viability, T/C (second compound 0.0949 µM, first compound 0.0316 µM): 99.4%
- viability, T/C (second compound 0.0949 µM, first compound 0.1 µM): 106%
- viability, T/C (second compound 0.0949 µM, first compound 0.316 µM): 115%
- viability, T/C (second compound 0.0949 µM, first compound 1 µM): 131%
- viability, T/C (second compound 0.3 µM, first compound 0.00316 µM): 107%
- viability, T/C (second compound 0.3 µM, first compound 0.01 µM): 128%
- viability, T/C (second compound 0.3 µM, first compound 0.0316 µM): 117%
- viability, T/C (second compound 0.3 µM, first compound 0.1 µM): 114%
- viability, T/C (second compound 0.3 µM, first compound 0.316 µM): 117%
- viability, T/C (second compound 0.3 µM, first compound 1 µM): 140%
- viability, T/C (second compound 0.949 µM, first compound 0.00316 µM): 127%
- viability, T/C (second compound 0.949 µM, first compound 0.01 µM): 111%
- viability, T/C (second compound 0.949 µM, first compound 0.0316 µM): 123%
- viability, T/C (second compound 0.949 µM, first compound 0.1 µM): 113%
- viability, T/C (second compound 0.949 µM, first compound 0.316 µM): 120%
- viability, T/C (second compound 0.949 µM, first compound 1 µM): 142%
- viability, T/C (second compound 3 µM, first compound 0.00316 µM): 129%
- viability, T/C (second compound 3 µM, first compound 0.01 µM): 123%
- viability, T/C (second compound 3 µM, first compound 0.0316 µM): 114%
- viability, T/C (second compound 3 µM, first compound 0.1 µM): 109%
- viability, T/C (second compound 3 µM, first compound 0.316 µM): 119%
- viability, T/C (second compound 3 µM, first compound 1 µM): 139%

SMILES: CCN1C(C(=O)NC23CCC(C(=O)O)(CC2)CC3)C(c2cccc(Cl)c2F)C2(C(=O)Nc3cc(Cl)ccc32)C12CCCCC2 (stereo not given) + CNC(C)C(=O)NC1CN(S(=O)(=O)c2cccc(S(=O)(=O)N3CCC4CCC(C(=O)NC(c5ccccc5)c5ccccc5)N4C(=O)C(NC(=O)C(C)NC)C3)c2)CCC2CCC(C(=O)NC(c3ccccc3)c3ccccc3)N2C1=O
- IC50 (second compound 0.01 µM): < 9.49 nM
- IC50 (second compound 0.0316 µM): < 9.49 nM
- IC50 (second compound 0.1 µM): < 9.49 nM
- IC50 (second compound 0.316 µM): < 9.49 nM
- IC50 (second compound 1 µM): < 9.49 nM
- viability, T/C (second compound 0.01 µM, first compound 0.00949 µM): 6.77%
- viability, T/C (second compound 0.01 µM, first compound 0.03 µM): 8.8%
- viability, T/C (second compound 0.01 µM, first compound 0.0949 µM): 6.77%
- viability, T/C (second compound 0.01 µM, first compound 0.3 µM): 4.95%
- viability, T/C (second compound 0.01 µM, first compound 0.949 µM): 4.31%
- viability, T/C (second compound 0.01 µM, first compound 3 µM): 2.99%
- viability, T/C (second compound 0.0316 µM, first compound 0.00949 µM): 4.48%
- viability, T/C (second compound 0.0316 µM, first compound 0.03 µM): 6.6%
- viability, T/C (second compound 0.0316 µM, first compound 0.0949 µM): 5.08%
- viability, T/C (second compound 0.0316 µM, first compound 0.3 µM): 5.41%
- viability, T/C (second compound 0.0316 µM, first compound 0.949 µM): 2.77%
- viability, T/C (second compound 0.0316 µM, first compound 3 µM): 1.77%
- viability, T/C (second compound 0.1 µM, first compound 0.00949 µM): 3.71%
- viability, T/C (second compound 0.1 µM, first compound 0.03 µM): 4.01%
- viability, T/C (second compound 0.1 µM, first compound 0.0949 µM): 3.17%
- viability, T/C (second compound 0.1 µM, first compound 0.3 µM): 3.11%
- viability, T/C (second compound 0.1 µM, first compound 0.949 µM): 1.37%
- viability, T/C (second compound 0.1 µM, first compound 3 µM): 2.04%
- viability, T/C (second compound 0.316 µM, first compound 0.00949 µM): 2.48%
- viability, T/C (second compound 0.316 µM, first compound 0.03 µM): 4.45%
- viability, T/C (second compound 0.316 µM, first compound 0.0949 µM): 3.05%
- viability, T/C (second compound 0.316 µM, first compound 0.3 µM): 1.97%
- viability, T/C (second compound 0.316 µM, first compound 0.949 µM): 0.96%
- viability, T/C (second compound 0.316 µM, first compound 3 µM): 1.45%
- viability, T/C (second compound 1 µM, first compound 0.00949 µM): 2.97%
- viability, T/C (second compound 1 µM, first compound 0.03 µM): 4.34%
- viability, T/C (second compound 1 µM, first compound 0.0949 µM): 2.12%
- viability, T/C (second compound 1 µM, first compound 0.3 µM): 1.73%
- viability, T/C (second compound 1 µM, first compound 0.949 µM): 1.39%
- viability, T/C (second compound 1 µM, first compound 3 µM): 1.39%
